This passage reports IC50 results from ChEMBL document CHEMBL1130600, “Tropane-based amino acids for peptide structure-function studies: inhibitors of platelet aggregation” (Bioorg Med Chem Lett, 1998).

Where only a bound is given, the exact number is not on record here.

This experiment is filed under the species Homo sapiens. As to the kind of experiment: Compound was tested for its ability to inhibit the thrombin-induced platelet aggregation in washed human platelets. In kind it is functional.
With `CC(=O)NC(CCCCN)C(=O)N1C2CCC1C(C(=O)NCCC(=O)O)C2` (stereo unspecified), the half-maximal inhibitory concentration (IC50) is greater than 500 µM.

The molecule `CC(=O)N[C@H](CCCCN)C(=O)N1C2CCC(C(=O)NCCC(=O)O)C1CC2` (stereo partly specified) showed a 50% inhibitory concentration (IC50) of 30 µM. Molecule `CC(=O)N[C@H](CCCCN)C(=O)N1CCCC(C(=O)NCCC(=O)O)C1` (stereo partly specified) registered a half-maximal inhibitory concentration (IC50) of 20 µM.

Take `CC(=O)NC(CCCCN)C(=O)N1CCCC(C(=O)NCCC(=O)O)C1` (stereo unspecified): the IC50 worked out at 60 µM. For the molecule `NC(N)=NCCCC(N)C(=O)N1C2CCC(C(=O)NC(CC(=O)O)C(=O)NC(CO)C(=O)O)C1CC2` (stereo unspecified), the IC50 was 23 µM. As for `CC(=O)N[C@H](CCCCN)C(=O)N1C2CCC1C(C(=O)NCCC(=O)O)C2` (stereo partly specified), the figure is greater than 500 µM; as for `NC(N)=NCCCC(N)C(=O)N1C2CCC1C(C(=O)NC(CC(=O)O)C(=O)NC(CO)C(=O)O)C2` (stereo unspecified), 402 µM. With `NC(N)=NCCCC(N)C(=O)N1C2CC=C(C(=O)NC(CC(=O)O)C(=O)NC(CO)C(=O)O)C1CC2` (stereo unspecified) the figure was 270 µM; with `CC(=O)NC(CCCCN)C(=O)N1C2CC=C(C(=O)NCCC(=O)O)C1CC2` (stereo unspecified), greater than 500 µM; with `CC(=O)NC(CCCCN)C(=O)N1C2CCC(C(=O)NCCC(=O)O)C1CC2` (stereo unspecified), 370 µM. `CC(=O)N[C@H](CCCCN)C(=O)N1C2CC=C(C(=O)NCCC(=O)O)C1CC2` (stereo partly specified) came in with a half-inhibitory concentration (IC50) of 160 µM.

What is called IC50 is the midpoint of a concentration-inhibition curve. A higher IC50 goes with lower potency.
